Reference: patent US6911524B1 (priority 1999, dated 2005)
Bridge positions count the residues as written; N and C are the ends. Peptide text beside a SMILES is read from it.

Legend:
Assay type in all cases: cell-based
Perkinsus marinus = assay: Antiprotozoan activity, parasite viability; conditions: Perkinsus marinus in seawater, 1 hour at room temperature, viability by acridine orange / ethidium bromide staining
Procedure: The oyster-parasite protozoan Perkinsus marinus is cultured in DMEM medium (GIBCO), according to the protocol described by GAUTHIER and VASTA [J. Invertebr. Pathol., 66, 156-168, (1995)].
10 μM of purified peptide are added to 4×10^4 P. marinus, in seawater (final volume 20 μl) . The mixture is incubated for 1 hour at room temperature. The viability of the parasites is estimated by staining with acridine orange and with ethidium bromide, as described by MORVAN et al. [J. Invertebr. Pathol., 69, 177-82 (1997)]. The maximum viability is evaluated, as a positive control, in samples to which the peptide has not been added.

Micrococcus luteus = assay: Antibacterial assay, MBC determination; conditions: summary of table 1
Procedure: (§1) The minimum […] concentration (MBC) of the peptides was determined according to the protocol described by HANCOCK et al.
(§2) A series of successive doubling dilutions of the peptides, in an aqueous solution containing 0.01% of acetic acid and 0.2% of bovine serum albumin (BSA), is prepared.
(§3) 10 μl aliquots of each dilution are incubated in sterile 96-well polypropylene microtitration plates, in the presence of 100 μl of bacterial suspension at a starting optical density of A600=0.001, in MUELLER HINTON BROTH liquid medium. The incubation is carried out for 18 h at 37° C. with stirring, except in the case of the marine bacteria, for which the incubation is carried out 25° C. The MBC is determined by plating out, onto solid MUELLER HINTON AGAR medium, the content of the wells corresponding to the first 3 dilutions for which no bacterial growth is observed, and incubating at 37° C. for 18 hours. The lowest concentration of peptide which prevents any residual formation of colonies corresponds to the MBC.

Escherichia coli D31 = assay: Antibacterial assay, MBC determination; conditions: summary of table 1
Procedure: as §1, §2, §3

Fusarium oxysporum = assay: Antifungal activity, growth inhibition in liquid phase (MIC); conditions: summary of table 1
Procedure: The antifungal activity was determined by calculating the MIC (minimum inhibitory concentration) in a test of inhibition of Fusarium oxysporum growth in liquid phase, according to the protocol described by FELHBAUM et al. [J. Biol. Chem., 269: 33159-63, (1994)].
A series of successive doubling dilutions of the peptides is prepared as indicated above for determining the antibacterial activity.
80 μl of spores suspended (final concentration 10^4 spores/ml) in Potato Dextrose Broth medium (DIFCO) are added to 10 μl of peptide solution in sterile 96-well polypropylene microtitration plates. The final volume is adjusted to 100 μl by adding water. The growth inhibition is determined after incubation for 24 hours at 25° C. in the dark, by observation under a microscope and measurement of the increase in the OD600. The value of the MIC corresponds to a range (a-b) of peptide concentrations, in which (a) represents the highest concentration at which growth is observed, and (b) represents the lowest concentration which induces 100% growth inhibition.

| Compound | Antiprotozoan activity (biological activity expressed in μM) (Perkinsus marinus) [μM] | Activity on Micrococcus luteus (in words) (Micrococcus luteus) | Activity on Escherichia coli compared (in words) (Escherichia coli D31) | Activity on Fusarium oxysporum compared (in words) (Fusarium oxysporum) |
| --- | --- | --- | --- | --- |
| CSCC[C@@H]1NC(=O)[C@H](CCCCN)NC(=O)CNC(=O)[C@@H]2CCCN2C(=O)[C@H](Cc2c[nH]cn2)NC(=O)[C@H](CC(C)C)NC(=O)[C@H](C(C)C)NC(=O)[C@H](CCCNC(=N)N)NC(=O)[C@@H]2CSSC[C@H](NC(=O)[C@H](C)NC(=O)[C@H](Cc3c[nH]cn3)NC(=O)[C@H](CO)NC(=O)[C@@H](N)Cc3c[nH]cn3)C(=O)N[C@@H]([C@@H](C)O)C(=O)N[C@@H](CO)C(=O)N[C@@H](Cc3ccc(O)cc3)C(=O)N[C@@H](Cc3c[nH]c4ccccc34)C(=O)N[C@H]3CSSC[C@H](NC1=O)C(=O)N[C@@H](C)C(=O)N[C@H]1CSSC[C@H](NC(=O)[C@H](Cc4ccccc4)NC(=O)[C@H](CCCCN)NC(=O)CNC3=O)C(=O)NCC(=O)N[C@@H]([C@@H](C)O)C(=O)N[C@@H](C)C(=O)N[C@@H](CO)C(=O)N[C@@H](CSSC[C@@H](C(=O)N[C@@H](CO)C(=O)N[C@@H](CCCNC(=N)N)C(=O)O)NC(=O)[C@H](Cc3c[nH]cn3)NC(=O)[C@H](C(C)C)NC1=O)C(=O)N[C@@H]([C@@H](C)O)C(=O)N[C@@H](Cc1c[nH]cn1)C(=O)N[C@@H](Cc1ccc(O)cc1)C(=O)N[C@@H](CC(C)C)C(=O)N2 [Myticin a] (H-HSHACTSYWCGKFCGTASCTHYLCRVLHPGKMCACVHCSR-OH; disulfide 5-24, 10-33, 14-35, 19-38; N-terminus and C-terminus assumed) | >20 | – | – | – |
| CC(C)C[C@@H]1NC(=O)[C@H](CCCCN)NC(=O)CNC(=O)[C@H](CCCNC(=N)N)NC(=O)[C@H](Cc2c[nH]cn2)NC(=O)[C@H](CC(C)C)NC(=O)[C@H](CC(N)=O)NC(=O)[C@H](CCCNC(=N)N)NC(=O)[C@@H]2CSSC[C@H](NC(=O)[C@@H](NC(=O)[C@H](Cc3c[nH]cn3)NC(=O)[C@@H]3CCCN3C(=O)[C@@H](N)Cc3c[nH]cn3)C(C)C)C(=O)N[C@@H]([C@@H](C)O)C(=O)N[C@@H](CO)C(=O)N[C@@H](Cc3ccc(O)cc3)C(=O)N[C@@H](Cc3ccc(O)cc3)C(=O)N[C@H]3CSSC[C@H](NC1=O)C(=O)N[C@@H](Cc1ccccc1)C(=O)N[C@H]1CSSC[C@H](NC(=O)[C@H](Cc4ccccc4)NC(=O)[C@H](CCCCN)NC(=O)[C@H](CO)NC3=O)C(=O)NCC(=O)N[C@@H]([C@@H](C)O)C(=O)N[C@@H](C)C(=O)NCC(=O)N[C@@H](CSSC[C@@H](C(=O)N[C@@H](CO)C(=O)N[C@@H](CCCNC(=N)N)C(=O)O)NC(=O)[C@H](Cc3c[nH]cn3)NC(=O)[C@H](CC(C)C)NC1=O)C(=O)N[C@@H]([C@@H](C)O)C(=O)N[C@@H](CCCNC(=N)N)C(=O)N[C@@H](Cc1ccc(O)cc1)C(=O)NCC(=O)N2 [Myticin b] (H-HPHVCTSYYCSKFCGTAGCTRYGCRNLHRGKLCFCLHCSR-OH; disulfide 5-24, 10-33, 14-35, 19-38; N-terminus and C-terminus assumed) | >20 | more active than the Myticin a peptide | more active than the Myticin a peptide | more active than the Myticin a peptide |
